In general, IC50 refers to the concentration at which inhibition is half-maximal.

What all share (type): cell-based
Assay [1] deals with Plasmodium falciparum, chloroquine-sensitive strain NF54. The experiment in a line: activity against P. falciparum in vitro, strain NF54. As to conditions: Plasmodium falciparum; chloroquine-sensitive strain NF54; 48 h-72 h; read-out: IC50 (50% growth inhibition). How it is done: (§1) Test method for the determination of the activity against P. falciparum in vitro
(§2) The preparations of the present invention were tested on intraerythrocytary stages of P. falciparum from asynchronous cultures according to the method of Desjardin et al. (Desjardins, R. E. et al: Quantitative assessment of antimalarial activity in vitro by a semiautomated microdilution technique. Antimicrob. Agents Chemother. 16, 710-718, (1979)).
(§3) The culture medium consisted of RPMI 1640 with the addition of 25 mM HEPES, 25 mM NaHCO3, […] neomycin and 10% human serum (A^+). Human-A^+ erythrocytes were used as the P. falciparum host cells. The parasites were maintained at 37° C. in an atmosphere of 3% O2, 4% CO2, 93% N2 and at 95% relative humidity.
(§4) In order to determine the activity, the preparations were dissolved in DMSO, pre-diluted in the culture medium to a suitable starting concentration and subsequently titrated-out into microtitre plates in the 2nd stage over 6-7 steps. After the addition of the parasite culture (0.7% parasitemia in 2.5% erythrocyte suspension), the test plates were incubated under the conditions given above for 48 h-72 h. The parasite growth in the different preparation concentrations was determined using [G-^3 H]-hypoxanthin incorporation compared to untreated control cultures on the same test plates. The 50% growth inhibition (IC50) was calculated according to logit regression analysis from the resulting dosage-activity curve.
(§5) The preparations were tested on at least one chloroquine-resistant and one chloroquine-sensitive P. falciparum strain. Additional sensitive and resistant strains were also included for further characterization.
(§6) Table 1 below contains the IC50 values measured in vitro for the growth inhibition of chloroquine-sensitive and chloroquine-resistant strains of the human pathogenic Plasmodium falciparum.

In assay [2] the test system is Plasmodium falciparum, chloroquine-resistant strain K1. Briefly: activity against P. falciparum in vitro, strain K1. As to conditions: Plasmodium falciparum; chloroquine-resistant strain K1; 48 h-72 h; read-out: IC50 (50% growth inhibition). How it is done:
as §1, §2, §3, §4, §5, §6

Assay [3] deals with Plasmodium falciparum, chloroquine-resistant strain W2. Briefly: activity against P. falciparum in vitro, strain W2. As to conditions: chloroquine-resistant strain W2, 48 h-72 h, read-out: IC50 (50% growth inhibition). How it is done:
as §1, §2, §3, §4, §5, §6

Assay [4] concerns Plasmodium falciparum, chloroquine-resistant strain W2 Mef. The experiment in a line: activity against P. falciparum in vitro, strain W2 Mef. As to conditions: 48 h-72 h, read-out: IC50 (50% growth inhibition). The protocol: as §1, §2, §3, §4, §5, §6
Assay [5] has as its system Plasmodium falciparum, chloroquine-sensitive strain HB3. Briefly: activity against P. falciparum in vitro, strain HB3. Conditions: chloroquine-sensitive strain HB3, 48 h-72 h, read-out: IC50 (50% growth inhibition). The protocol:
as §1, §2, §3, §4, §5, §6

Assay [6] deals with Plasmodium falciparum, chloroquine-resistant strain Indo. Briefly: activity against P. falciparum in vitro, strain Indo. As to conditions: chloroquine-resistant strain Indo, 48 h-72 h, read-out: IC50 (50% growth inhibition). How it is done: as §1, §2, §3, §4, §5, §6
Assay [7] deals with Plasmodium falciparum, chloroquine-sensitive strain FCH5C2. Briefly: activity against P. falciparum in vitro, strain FCH5C2. Conditions: chloroquine-sensitive strain FCH5C2, 48 h-72 h, read-out: IC50 (50% growth inhibition). How it is done:
as §1, §2, §3, §4, §5, §6

Assay [8] relates to Plasmodium falciparum, chloroquine-resistant strain 7G8. Briefly: activity against P. falciparum in vitro, strain 7G8. Conditions: chloroquine-resistant strain 7G8, 48 h-72 h, read-out: IC50 (50% growth inhibition). The protocol: as §1, §2, §3, §4, §5, §6
In assay [9] the test system is Plasmodium falciparum, chloroquine-sensitive strain RFMEF3. Briefly: activity against P. falciparum in vitro, strain RFMEF3. As to conditions: chloroquine-sensitive strain RFMEF3, 48 h-72 h, read-out: IC50 (50% growth inhibition). How it is done: as §1, §2, §3, §4, §5, §6
For assay [10], the system named is Plasmodium falciparum, chloroquine-resistant strain RFCR3. The experiment in a line: activity against P. falciparum in vitro, strain RFCR3. Conditions: chloroquine-resistant strain RFCR3, 48 h-72 h, read-out: IC50 (50% growth inhibition). The protocol: as §1, §2, §3, §4, §5, §6
Assay [11] concerns Plasmodium falciparum, chloroquine-resistant strain ItG2 F6. The experiment in a line: activity against P. falciparum in vitro, strain ItG2 F6. Conditions: chloroquine-resistant strain ItG2 F6, 48 h-72 h, read-out: IC50 (50% growth inhibition). The protocol:
as §1, §2, §3, §4, §5, §6

For assay [12], the system named is Plasmodium falciparum, chloroquine-sensitive strain Ro7 3. The experiment in a line: activity against P. falciparum in vitro, strain Ro7 3. As to conditions: chloroquine-sensitive strain Ro7 3, 48 h-72 h, read-out: IC50 (50% growth inhibition). How it is done:
as §1, §2, §3, §4, §5, §6

SMILES strings stand for the structures. In brackets after ≈: the same amount, converted by molar mass.

For the molecule `CCN1CCCC1CNc1ccnc2cc(Cl)ccc12` (stereo not drawn) [Example 12, (7-Chloro-quinolin-4-yl)-(1-ethyl-pyrrolidin-2-yl-methyl)-amine], the IC50 in assay [1] came out at 0.006 µg/mL (≈ 0.0207 µM); in assay [2], 0.01 µg/mL (≈ 0.0345 µM); in [3], 0.015 µg/mL (≈ 0.0518 µM); in assay [4] it was 0.009 µg/mL (≈ 0.0311 µM); in [5], 0.007 µg/mL (≈ 0.0242 µM); in assay [6] it was 0.012 µg/mL (≈ 0.0414 µM). For the same molecule, the concentration for half-maximal inhibition (IC50) in assay [7] came to 0.009 µg/mL (≈ 0.0311 µM); in [8], 0.015 µg/mL (≈ 0.0518 µM); in assay [9] it was 0.008 µg/mL (≈ 0.0276 µM); in [10] it was 0.015 µg/mL (≈ 0.0518 µM); in assay [11], 0.008 µg/mL (≈ 0.0276 µM); in assay [12], 0.007 µg/mL (≈ 0.0242 µM).

Consider `CC(C)(CN1CCCC1)Nc1ccnc2cc(Cl)ccc12` [Example 13, (7-Chloro-quinolin-4-yl)-(1,1-dimethyl-2-pyrrolidin-1-yl-ethyl)-amine], for which the IC50 in [1] worked out at 0.03 µg/mL (≈ 0.0987 µM); in assay [2], 0.047 µg/mL (≈ 0.155 µM); in assay [3] it was 0.034 µg/mL (≈ 0.112 µM); in assay [4] it was 0.041 µg/mL (≈ 0.135 µM); in assay [5], 0.038 µg/mL (≈ 0.125 µM); in assay [6] it was 0.04 µg/mL (≈ 0.132 µM). For the same molecule, the IC50 amounted to 0.028 µg/mL (≈ 0.0922 µM) in [7]; 0.039 µg/mL (≈ 0.128 µM) in [8]; 0.027 µg/mL (≈ 0.0889 µM) in assay [9]; 0.058 µg/mL (≈ 0.191 µM) in assay [10]; 0.025 µg/mL (≈ 0.0823 µM) in assay [11]; 0.03 µg/mL (≈ 0.0987 µM) in assay [12].

`CC(C)(CN1CCCCC1)Nc1ccnc2cc(Cl)ccc12` [Example 14, (7-Chloro-quinolin-4-yl)-(1,1-dimethyl-2-piperidin-1-yl-ethyl)-amine]: the IC50 in assay [1] was found to be 0.009 µg/mL (≈ 0.0283 µM); in assay [2], 0.021 µg/mL (≈ 0.0661 µM); in [3], 0.02 µg/mL (≈ 0.0629 µM); in assay [4], 0.014 µg/mL (≈ 0.044 µM); in [5], 0.009 µg/mL (≈ 0.0283 µM); in assay [6], 0.01 µg/mL (≈ 0.0315 µM). In addition, the IC50 came to 0.008 µg/mL (≈ 0.0252 µM) in assay [7]; 0.007 µg/mL (≈ 0.022 µM) in assay [8]; 0.006 µg/mL (≈ 0.0189 µM) in [9]; 0.008 µg/mL (≈ 0.0252 µM) in assay [10]; 0.006 µg/mL (≈ 0.0189 µM) in [11]; 0.004 µg/mL (≈ 0.0126 µM) in [12].

`CN(C)CCNc1ccnc2cc(C(F)(F)F)ccc12` [Example 22, N1,N1 -Dimethyl-N2-(7trifluoromethyl-quinolin-4-yl)-ethane-1,2-diamine]: the IC50 in assay [1] came to 0.014 µg/mL (≈ 0.0494 µM); in [2], 0.022 µg/mL (≈ 0.0777 µM); in assay [3] it was 0.011 µg/mL (≈ 0.0388 µM); in assay [4], 0.023 µg/mL (≈ 0.0812 µM); in assay [5], 0.02 µg/mL (≈ 0.0706 µM); in assay [6], 0.016 µg/mL (≈ 0.0565 µM). The half-maximal inhibitory concentration (IC50) in assay [7] came to 0.017 µg/mL (≈ 0.06 µM); in assay [8], 0.029 µg/mL (≈ 0.102 µM); in assay [9], 0.018 µg/mL (≈ 0.0635 µM); in assay [10], 0.02 µg/mL (≈ 0.0706 µM); in assay [11], 0.014 µg/mL (≈ 0.0494 µM); in assay [12], 0.011 µg/mL (≈ 0.0388 µM).

For the molecule `CC1CCN(CCNc2ccnc3cc(Cl)ccc23)CC1` [Example 24, (7-Chloro-quinolin-4-yl)-[2-(4-methyl-piperidin-1-yl)-ethyl]-amine], the IC50 in [1] was 0.007 µg/mL (≈ 0.023 µM); in assay [2], 0.015 µg/mL (≈ 0.0494 µM); in [3] it was 0.015 µg/mL (≈ 0.0494 µM); in [4] it was 0.009 µg/mL (≈ 0.0296 µM); in assay [5], 0.007 µg/mL (≈ 0.023 µM); in assay [6], 0.008 µg/mL (≈ 0.0263 µM). The 50% inhibitory concentration (IC50) in assay [7] came to 0.007 µg/mL (≈ 0.023 µM); in assay [8], 0.007 µg/mL (≈ 0.023 µM); in assay [9], 0.007 µg/mL (≈ 0.023 µM); in [10] it was 0.009 µg/mL (≈ 0.0296 µM); in [11], 0.006 µg/mL (≈ 0.0197 µM); in assay [12], 0.004 µg/mL (≈ 0.0132 µM).

(Values after patent US5596002A, “Method of treating chloroquine-resistant malaria with aminoquinoline derivatives” (Hoffmann-La Roche Inc., priority 1993, dated 1997).)
